Assay results from US20050187191A1, “Methods and compositions for the treatment of respiratory syncytial virus” (priority 2004, published 2005).

Experiments:
RSV (Long strain) = test: RSV plaque assay with Hep-2 cell monolayers; format: cell-based; settings: for EC50: human respiratory syncytial virus, 144 h, Hep-2 cell monolayers, RSV Long strain, 6 days of incubation, 0.4-50 μM in triplicate, read-out: Effective Conc. (EC50) RSV Plaque Count
Procedure: The ability of the active compounds to inhibit the growth of RSV was determined using a standard plaque assay with Hep-2 cell monolayers. The cell monolayers were infected with RSV (Long strain obtained from the American Tissue Culture Catalog, Cat# VR-26). After one hour of virus attachment, the cells were overlaid with medium containing methyl cellulose with or without serial concentrations of compound (0.4-50 μM). Each concentration was tested in triplicate. After 6 days of incubation, the overlay medium was aspirated and the cells fixed with absolute ethanol and stained with crystal violet to visualize RSV plaques and cell cytotoxicity using a 4× dissecting microscope. To determine the percent inhibition of RSV plaque formation, the mean number of RSV plaques in the presence of compound was divided by the number of RSV plaques in the control without added compounds. The quotient was subtracted from 1 and then multiplied by 100% to establish the % inhibition.

[1] = Toxicity test, 3H-thymidine incorporation (total DNA synthesis, cell growth); format: cell-based; settings: cells in growth phase (cell line not given); 48 hours treatment, 6 hours 3H-thymidine pulse; highest concentration evaluated 100 μM; read-out: Toxic Conc. (TC50) Cell Growth
Procedure: Cells in growth phase were treated with serial concentrations of compound for 48 hours and pulse labeled with 3H-thymidine for 6 hours. The cells were then harvested to measure total DNA synthesis in the presence or absence of the compound (Kucera et al., Antiviral Chemistry and Chemotherapy, 9: i57-i65 (1998)).
TC50 determinations were calculated by the method of Chou et al. Elsvier: Amsterdam, 1985, as described in Piantadosi C. et al., Journal of Medicinal Chemistry, 34: 1408-1414 (1991). The TC50 for KPC-15 and KPC-11 were unable to be determined since at the highest concentration evaluated (100 μM), 50% toxicity was not observed. Thus, KPC-15 and KPC-11, lacked significant toxicity in vitro with the TC50>100 μM.

Structure (SMILES) | SI (Selectivity Index: TC50 Cell Growth divided by EC50 Plaque Inhibition) (RSV (Long strain)) | in vitro activity against RSV (in words) (RSV (Long strain)) | EC50 (RSV (Long strain)) [µM] | CC50 at 48 h [1] [µM]
CCCCCCCCCC(=O)NCC(COP(=O)([O-])OCC[N+](C)(C)C)OCC (centres unmarked) [KPC-11, decylamido-2-ethoxypropylphosphocholine] | >28 | potent in vitro activity against RSV | 3.5 | > 100
CCCCCCCCCCCC(=O)NCC(COP(=O)([O-])OCC[N+](C)(C)C)OCC (centres unmarked) [KPC-15, 3-dodecylamido-2-ethoxypropylphosphocholine] | >42 | potent in vitro activity against RSV | 2.4 | > 100
